# Assay results: patent US8969573B2, “Compounds for the inhibition of cellular proliferation” (President and Fellows of Harvard College, priority 2010, dated 2015)
# Read-outs that look alike come from different tables or passages of the source.
# Columns and labels:
# CRL2813 human melanoma = assay: SRB assay (inhibition of cell proliferation); format: cell-based
# Source text: (§1) A sulfur rhodamine B (SRB) assay was used to determine the extent of inhibition of cell proliferation as a measure of the anti-cancer activity of compounds of the present disclosure. The reagent SRB binds to cellular proteins and absorbs light proportionally to the cellular protein content, which is a surrogate marker for the number of cells. According to aspects of the present disclosure, the assay can be used to with any cancer cell line including breast cancer cell lines, prostate cancer cell lines, melanoma cell lines, lung cancer cell lines or any other cell lines of the cancers described herein.
# (§2) The following protocol was used to determine the growth characteristics of certain cell lines CRL2351 human breast cancer and CRL2813 human melanoma from which cell lines having doubling times less than 48 hours were selected for growth inhibition experiments. […] The following materials were used in addition to the cancel cell lines: complete (5% fetal calf serum added) tissue culture media, 96-well tissue culture plates, Sulforhodamine B dye (SRB, 0.57% w/w), […] (TCA, 10%), acetic acid glacial (1%) and 10 mM Tris base. The cells were prepared and plated. Cancer cells were grown to 80% confluency in an incubator. The cells were trypsinized per standard protocol or as needed for each cell line. The trypsin was neutralized, cells dissociated and counted. Each cell line was plated at a density of 500, 1000 and 3000 cells per well (six wells each) in five separate plates. The cells were then returned to the incubator. One plate was then removed each day starting day one after plating. 100 μl of 10% TCA was then added and the cells were fixed at 4° C. until all the cells were fixed. […] The cell growth for vehicle treatment is considered to be 100%. The optical density was then measured and plotted for each starting cell number and cell line against time. The percent cell growth inhibition was calculated as 100 minus the % of control cell growth. The % of control cell growth=((mean OD sample−Mean OD day 0)/(mean OD vehicle−Mean OD day 0))*100.
# [1] = system: CRL2351 human breast cancer; assay: SRB assay (inhibition of cell proliferation); format: cell-based; settings: CRL2351 human breast cancer cells
# Source text: as §1, §2
# eIF4E/eIF4G interaction = eIF4E/eIF4G interaction (Homo sapiens, UniProt P06730); assay: Fluorescent polarization assay; format: binding; settings: FITC eIF4G peptide and recombinant eIF4E, ratio to Z (4EGI-1 = 1)
# Sequence of eIF4E/eIF4G interaction (P06730 whole entry): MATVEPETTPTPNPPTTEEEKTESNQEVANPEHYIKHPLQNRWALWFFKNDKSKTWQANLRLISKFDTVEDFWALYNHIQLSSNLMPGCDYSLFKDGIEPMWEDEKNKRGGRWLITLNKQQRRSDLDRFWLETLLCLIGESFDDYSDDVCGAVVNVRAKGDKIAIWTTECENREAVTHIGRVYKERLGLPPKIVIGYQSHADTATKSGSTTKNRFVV
# Procedure: The difference between the two measurement yields net polarization which is considered full signal of the assay (100% control). […] The activity of compound at each concentration is determined by comparing the fluorescent polarization (FP) signal in the presence of compound to the control (no compound) value. The percent inhibition is =100-((FP compound/FP control)*100).
# [2] = Homo sapiens, CRL2813, CRL2813 human melanoma cells, summary table, read-out: IC50 [μM} CRL2813
# [3] = Homo sapiens, summary table, read-out: IC50 [μM} CRL2351
# [4] = Homo sapiens, CRL2813, CRL2813 human melanoma cells, Tables 1, 4, 5, read-out: SRB-IC50 (μM) 2813
# [5] = summary table, read-out: IC50 [μM} CRL2351
# [6] = Homo sapiens, Tables 1, 4, 5, read-out: SRB-IC50 (μM) 2351
# [7] = CRL2813 human melanoma cells, summary table, read-out: IC50 [μM} CRL2813
SMILES,IC50 (CRL2813 human melanoma; [2]),"IC50 [1, 3]",Fp (ratio to Z) (eIF4E/eIF4G interaction),IC50 (CRL2813 human melanoma; [4]),"IC50 [1, 5]","IC50 [1, 6]",IC50 (CRL2813 human melanoma; [7])
COc1ccc(-c2nc(NN=C(Cc3ccccc3[N+](=O)[O-])C(=O)O)sc2-c2ccc(-n3cc(-c4cccc(O)c4)nn3)cc2)cc1 [KY-441],15 ± 1.12 µM,> 20 µM,1.2,,,,
[N-]=[N+]=NCCCOc1ccc(-c2csc(N/N=C(/Cc3ccccc3[N+](=O)[O-])C(=O)O)n2)cc1 [KH-167f],18.6 µM,,1.04,18.6 µM,> 20 µM,,
O=C(O)c1nn(-c2nc(-c3ccccc3)cs2)c2ccc([N+](=O)[O-])cc12 [RYF-292],2.5 µM,9 µM,0.6,,,,
[N-]=[N+]=NCCCOc1ccccc1-c1csc(N/N=C(/Cc2ccccc2[N+](=O)[O-])C(=O)O)n1 [KH-170],14.5 µM,0.8 µM,0.92,16.5 µM,,0.8 µM,
O=C(O)C(Cc1ccccc1[N+](=O)[O-])=NNc1nc(-c2cc(Br)cc(Br)c2O)cs1 [KH-102BII],> 20 µM,9 µM,0.69,,,,
Cc1ccc(-c2nc(NN=C(Cc3ccccc3[N+](=O)[O-])C(=O)O)sc2-c2ccc(Cl)c(Cl)c2)cc1 [KY-365A22-B3],3.3 µM,3.2 µM,0.85,,,,
"O=C(O)/C(=N\Nc1nc(-c2ccc(Cl)c(Cl)c2)cs1)c1ccccc1[N+](=O)[O-] [KY-782-Z, (Z)-2-(2-(4-(3,4-dichlorophenyl)thiazol-2-yl)hydrazono)-2-(2-nitrophenyl)acetic acid]",,13 µM,0.83,,,,10 µM
COc1ccc(-c2nc(N/N=C(\Cc3ccccc3[N+](=O)[O-])C(=O)O)sc2-c2cccc(-n3cc(CO)nn3)c2)cc1 [KY-467F],> 20 µM,> 20 µM,0.7,,,,
CCOc1ccc(-c2nc(N/N=C(/Cc3ccccc3[N+](=O)[O-])C(=O)O)sc2-c2ccc(OC)cc2)cc1 [KY-576S],,,0.82,,> 20 µM,,12.8 µM
"[N-]=[N+]=NC/C(=N\Nc1nc(-c2ccc(Cl)c(Cl)c2)cs1)C(=O)O [KY-757-p, (E)-3-azido-2-(2-(4-(3,4-dichlorophenyl)thiazol-2-yl)hydrazono) propanoic acid]",> 20 µM,> 20 µM,1,,,,
COc1ccc(-c2nc(NN=C(Cc3ccccc3[N+](=O)[O-])C(=O)O)sc2-c2ccc(OC)cc2)cc1 [KY-323A],,,0.67,,0.6 µM,,1 µM
COc1cc(-c2nc(NN=C(Cc3ccccc3[N+](=O)[O-])C(=O)O)sc2-c2ccc(Cl)c(Cl)c2)cc(OC)c1OC [KY-369S],2 ± 0.19 µM,0.6 ± 0.02 µM,0.75,,,,
COc1ccc(-c2sc(N/N=C(\Cc3ccccc3[N+](=O)[O-])C(=O)O)nc2-c2ccc(SC)cc2)cc1 [KY-611-pri-S],6.2 µM,15.5 µM,0.62,,,,
[N-]=[N+]=NCCOc1cccc(-c2csc(N/N=C(/Cc3ccccc3[N+](=O)[O-])C(=O)O)n2)c1 [KH-174],11 µM,1.2 µM,0.82,11 µM,,1.3 µM,
Br.CCN(CC)c1ccc(-c2csc(N/N=C(\Cc3ccccc3[N+](=O)[O-])C(=O)O)n2)cc1 [KY-615S],12.5 µM,,4,,> 20 µM,,
COc1ccc(-c2nc(NN=C(Cc3ccccc3[N+](=O)[O-])C(=O)O)sc2-c2ccc(Cl)c(Cl)c2)cc1 [KY-371A11-B1],3 ± 0.5 µM,16 ± 4.9 µM,2.4,,,,
O=C(O)/C(Cc1c(Br)cccc1[N+](=O)[O-])=N/Nc1nc(-c2ccc(Cl)c(Cl)c2)cs1 [RYF-339F],1 µM,< 0.54 µM,2.0,,,,

SMILES,IC50 (CRL2813 human melanoma; [2]),"IC50 [1, 3]",Fp (ratio to Z) (eIF4E/eIF4G interaction),IC50 (CRL2813 human melanoma; [4]),"IC50 [1, 5]","IC50 [1, 6]",IC50 (CRL2813 human melanoma; [7])
O=C(O)/C(Cc1ccc([N+](=O)[O-])cc1)=N\Nc1nc(-c2ccc(Cl)c(Cl)c2)cs1 [KY-755-p],5 µM,15 µM,1,,,,
O=C(O)/C(Cc1ccc(C(F)(F)F)cc1)=N/Nc1nc(-c2ccc(Cl)c(Cl)c2)cs1 [KY-680],1 µM,3 µM,1.1,,,,
NC(=O)/C(Cc1ccccc1[N+](=O)[O-])=N/Nc1nc(-c2ccc(Cl)c(Cl)c2)cs1 [KY-725],3 µM,3 µM,0.7,,,,
COc1ccc(-c2nc(NN=C(Cc3ccccc3[N+](=O)[O-])C(=O)O)sc2-c2ccc(Cl)cc2)cc1 [KY-355PR],3 ± 0.18 µM,> 20 µM,1.1,,,,
O=C(O)C(Cc1ccccc1[N+](=O)[O-])=NNc1nc(-c2cc(Br)cc(Br)c2O)cs1 [KH-102BIIs],,,0.69,,18 µM,,20.5 µM
COc1ccc(-c2cn(-c3ccc(-c4sc(NN=C(Cc5ccccc5[N+](=O)[O-])C(=O)O)nc4-c4ccc(OC)cc4)cc3)nn2)cc1 [KY-445],13 ± 0.82 µM,> 20 µM,1,,,,
CCOc1ccc(-c2nc(N/N=C(/Cc3ccccc3[N+](=O)[O-])C(=O)O)sc2-c2ccc(OC)cc2)cc1 [KY-576F],,,1,,2 µM,,2 µM
COc1ccc(-c2sc(N/N=C(/Cc3ccccc3[N+](=O)[O-])C(=O)O)nc2-c2ccc(Cl)c(Cl)c2)cc1 [KY-600],2.8 µM,4.5 µM,0.7,,,,
COc1ccc(-c2nc(N/N=C(\Cc3ccccc3[N+](=O)[O-])C(=O)O)sc2-c2ccc(-c3ccccc3)cc2)cc1 [KY-435-F],,,0.5,,2.8 ± 0.73 µM,,3 ± 0.56 µM
COc1ccc(-c2nc(NN=C(Cc3ccccc3[N+](=O)[O-])C(=O)O)sc2-c2ccc(-n3cc(CCCO)nn3)cc2)cc1 [KY-447],17 ± 1.29 µM,> 20 µM,1.5,,,,
O=C(O)C(Cc1ccccc1[N+](=O)[O-])=NNc1nc(-c2ccccc2)c(-c2ccc(Cl)cc2)s1 [KY-349PR],> 20 µM,> 20 µM,1,,,,
"O=C(O)/C(=N\Nc1nc(-c2ccc(Cl)c(Cl)c2)cs1)c1c[nH]c2ccccc12 [KY-689, {[4-(3,4-Dichloro-phenyl)-thiazol-2-yl]-hydrazono}-(1H-indol-3-yl)-acetic acid]",> 20 µM,> 20 µM,4,,,,
COc1ccc(-c2nc(NN=C(Cc3ccccc3[N+](=O)[O-])C(=O)O)sc2-c2ccc(N=[N+]=[N-])cc2)cc1 [KY-379S],3 ± 0.2 µM,1.2 ± 0.04 µM,1.2,,,,
[N-]=[N+]=NCCCCCOc1ccc(-c2csc(N/N=C(/Cc3ccccc3[N+](=O)[O-])C(=O)O)n2)cc1 [KH-168S],16 µM,> 20 µM,1.29,16 µM,,,
"COc1ccc(-c2sc(N/N=C(/Cc3ccccc3[N+](=O)[O-])C(=O)O)nc2-c2ccc(-c3ccccc3)cc2)cc1 [KY-577S, 2-{[4-Biphenyl-4-yl-5-(4-methoxy-phenyl)-thiazol-2-yl]-hydrazono}-3-(2-nitro-phenyl)-propionic acid]",,,1,,11.7 µM,,3.5 µM
COc1ccc(-c2nc(NN=C(Cc3ccccc3[N+](=O)[O-])C(=O)O)sc2-c2ccc(Cl)cc2)cc1OC [KY-353PR],> 20 µM,> 20 µM,0.7,,,,
